Measured values taken from ChEMBL document CHEMBL4842344, “Design, synthesis and biological activity evaluation of novel scopoletin-NO donor derivatives against MCF-7 human breast cancer in vitro and in vivo” (Eur J Med Chem, 2021).
Calls of active or inactive are those of the source. The calls are words filed in the database; no cut-off is given here.

Assays:
MCF7 [1] = experiment: Antiproliferative activity against human MCF7 cells assessed as inhibition of cell growth measured after 48 hrs by MTT assay; format: functional, cell-based; details: MCF7, 48 h
MDA-MB-231 = experiment: Antiproliferative activity against human MDA-MB-231 cells assessed as inhibition of cell growth measured after 48 hrs by MTT assay; format: functional, cell-based; details: MDA-MB-231, 48 h
MCF7 [2] = experiment: Inhibition of cell proliferation in human MCF7 cells assessed as increase in intracellular NO production at 25 uM measured after 2.5 hrs by nitric oxide assay; format: functional, cell-based
MCF-10A = experiment: Cytotoxicity against human MCF-10A cells assessed as reduction in cell viability measured after 48 hrs by MTT assay; format: cell-based

SMILES | IC50 (MCF7 [1]) | IC50 (MDA-MB-231) | Activity (MCF7 [2]) | IC50 (MCF-10A)
COc1ccc(NC(=O)c2cc3cc(OC)c(OCCCOc4no[n+]([O-])c4S(=O)(=O)c4ccccc4)cc3oc2=O)cc1 | 410 nM | 730 nM | Active | 5470 nM
COc1cc2cc(C(=O)NCCCc3ccccc3)c(=O)oc2cc1OCCCOc1no[n+]([O-])c1S(=O)(=O)c1ccccc1 | 870 nM | 760 nM | Active | 5330 nM
COc1cccc2c1C(=O)c1c(O)c3c(c(O)c1C2=O)C[C@@](O)(C(=O)CO)C[C@@H]3O[C@H]1C[C@H](N)[C@H](O)[C@H](C)O1 [DOXORUBICIN] | 510 nM | 550 nM |  | 490 nM
